In patent US20090011442A1, “TB diagnostics based on mycobacterium tuberculosis excretory secretory antigens and their specific immunoglobulins” (priority 2007, published 2009):

Test system: M. tb H37Ra bacilli
Format: cell-based, Mycobacterium tuberculosis H37Ra

Compound | MIC (mg/l)/Resistance Ratio [mg/L] | Resistance ratio
CC[C@@H](CO)NCCN[C@@H](CC)CO [EMB, ethambutol] | >8 | –
NNC(=O)c1ccncc1 [INH, isoniazid] | >1 | –
NC(=O)c1cnccn1 [PZA] | >100 | –
CO[C@H]1/C=C/O[C@@]2(C)Oc3c(C)c(O)c4c(O)c(c(/C=N/N5CCN(C)CC5)c(O)c4c3C2=O)NC(=O)/C(C)=C\C=C\[C@H](C)[C@H](O)[C@@H](C)[C@@H](O)[C@@H](C)[C@H](OC(C)=O)[C@@H]1C [RMP, rifampicin] | >64 | –
[H]/N=C(/N)N[C@H]1[C@H](O)[C@@H](O)[C@H](O[C@@H]2O[C@@H](C)[C@](O)(C=O)[C@H]2O[C@@H]2O[C@@H](CO)[C@H](O)[C@@H](O)[C@@H]2NC)[C@@H](N/C(N)=N\[H])[C@@H]1O [SM, streptomycin] | – | ratio > 8
